Results published in patent US11739100B2, “2,3-dihydro-1h-imidazo{1,2-a}pyrimidin-5-one and this 1,2,3,4-tetrahydropyrimido{1,2-a}pyrimidin-6-one derivatives comprising a substituted morpholine, preparation thereof and pharmaceutical use thereof” (SANOFI, priority 2012, dated 2023).

Target: T1, recombinant Vps34 (Homo sapiens, UniProt Q8NEB9)
T1 construct: purchased Invitrogen PV5126
Test: Phosphorylation of phosphatidylinositol (PI) by Vps34 in vitro, ADP detected by TR-FRET (HTRF Transcreener ADP)
Assay type: biochemical
Conditions: 10 μM ATP, 55 μg/ml PI, approximately 3 nM Vps34, 1 hour at ambient temperature; absolute IC50, mean of two independent experiments; read-out: IC50 activity range

T1 sequence (Q8NEB9 whole entry): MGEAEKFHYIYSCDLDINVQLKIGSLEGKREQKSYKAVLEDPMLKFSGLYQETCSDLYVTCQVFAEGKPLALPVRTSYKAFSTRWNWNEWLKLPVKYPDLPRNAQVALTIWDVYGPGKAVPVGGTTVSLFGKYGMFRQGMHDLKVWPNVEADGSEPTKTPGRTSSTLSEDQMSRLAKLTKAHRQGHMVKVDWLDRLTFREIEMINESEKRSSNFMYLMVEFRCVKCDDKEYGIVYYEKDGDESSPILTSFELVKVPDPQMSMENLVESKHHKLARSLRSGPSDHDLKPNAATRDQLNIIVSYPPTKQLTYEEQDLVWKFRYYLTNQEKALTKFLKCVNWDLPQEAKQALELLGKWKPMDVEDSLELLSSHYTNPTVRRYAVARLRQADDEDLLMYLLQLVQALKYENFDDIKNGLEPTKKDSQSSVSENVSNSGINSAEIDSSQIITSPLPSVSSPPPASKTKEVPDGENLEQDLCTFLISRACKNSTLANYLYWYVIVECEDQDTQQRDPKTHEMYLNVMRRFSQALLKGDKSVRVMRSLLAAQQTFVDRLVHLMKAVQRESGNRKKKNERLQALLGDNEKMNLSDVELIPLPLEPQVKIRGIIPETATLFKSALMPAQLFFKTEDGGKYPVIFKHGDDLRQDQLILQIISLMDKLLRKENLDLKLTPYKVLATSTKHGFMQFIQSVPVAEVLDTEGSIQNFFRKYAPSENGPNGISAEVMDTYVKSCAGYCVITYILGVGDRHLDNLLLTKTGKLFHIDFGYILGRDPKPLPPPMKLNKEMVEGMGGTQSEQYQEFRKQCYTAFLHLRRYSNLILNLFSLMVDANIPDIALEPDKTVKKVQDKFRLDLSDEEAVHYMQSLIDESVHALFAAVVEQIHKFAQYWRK

Structure (SMILES) | IC50
O=c1cc(N2CC3CCC(C2)O3)nc2n1CC[C@@H](C(F)(F)F)N2Cc1ccc(Cl)nc1 [Example 168, (S)-9-(6-Chloro-pyridin-3-ylmethyl)-2-(8-oxa-3-aza-bicyclo[3.2.1]oct-3-yl)-8-trifluoromethyl-6,7,8,9-tetrahydro-pyrimido[1,2-a]-pyrimidin-4-one] | 10 to 100 nM
O=C(CN1c2nc(N3CC4CCC(C3)O4)cc(=O)n2CC[C@H]1C(F)(F)F)c1ccccn1 [Example 171, (S)-2-(8-Oxa-3-aza-bicyclo[3.2.1]oct-3-yl)-9-(2-oxo-2-pyridin-2-ylethyl)-8-trifluoromethyl-6,7,8,9-tetrahydro-pyrimido[1,2-a]-pyrimidin-4-one] | 10 to 100 nM
C[C@@H]1COCCN1c1nc2n(c(=O)c1F)CC[C@@H](C(F)(F)F)N2CC(=O)N1CC2(CCO2)C1 [Example 333, (S)-3-Fluoro-2-((R)-3-methylmorpholin-4-yl)-9-[2-(1-oxa-6-aza-spiro[3.3]hept-6-yl)-2-oxoethyl]-8-trifluoromethyl-6,7,8,9-tetrahydropyrimido-[1,2-a]pyrimidin-4-one] | < 10 nM
O=c1cc(N2CCOC(CF)C2)nc2n1CC[C@@H](C(F)(F)F)N2Cc1ccccc1 (stereo partly drawn) [Example 193, (S)-9-Benzyl-2-(2-fluoromethyl-morpholin-4-yl)-8-trifluoromethyl-6,7,8,9-tetrahydro-pyrimido[1,2-a]-pyrimidin-4-one] | > 100 nM
C[C@@H]1COCCN1c1nc2n(c(=O)c1F)C[C@@](C)(C(F)(F)F)N2CC(=O)C1CC1 [Example 187, (S)-1-(2-Cyclopropyl-2-oxoethyl)-6-fluoro-2-methyl-7-((R)-3-methylmorpholin-4-yl)-2-trifluoromethyl-2,3-dihydro-1H-imidazo[1,2-a]-pyrimidin-5-one] | < 10 nM
C[C@@H]1COCCN1c1cc(=O)n2c(n1)N(CC(=O)C1CCOCC1)[C@](C)(C(F)(F)F)C2 [Example 190, (S)-2-Methyl-7-((R)-3-methylmorpholin-4-yl)-1-[2-oxo-2-(tetrahydro-pyran-4-yl)ethyl]-2-trifluoromethyl-2,3-dihydro-1H-imidazo[1,2-a]-pyrimidin-5-one] | < 10 nM
Cc1nc(CN2c3nc(N4CC5CCC(C4)O5)cc(=O)n3CC[C@H]2C(F)(F)F)no1 [Example 270, (S)-9-(5-Methyl-[1,2,4]oxadiazol-3-yl-methyl)-2-(8-oxa-3-azabicyclo[3.2.1]oct-3-yl)-8-trifluoromethyl-6,7,8,9-tetrahydro-pyrimido[1,2-a]-pyrimidin-4-one] | 10 to 100 nM
CC(C)CC(=O)CN1c2nc(N3CCOC[C@H]3C)c(F)c(=O)n2CC[C@H]1C(F)(F)F [Example 280, (S)-3-Fluoro-2-((R)-3-methylmorpholin-4-yl)-9-(4-methyl-2-oxo-pentyl)-8-trifluoromethyl-6,7,8,9-tetrahydro-pyrimido[1,2-a]-pyrimidin-4-one] | < 10 nM
C[C@@H]1COCCN1c1nc2n(c(=O)c1F)CC[C@@H](C(F)(F)F)N2CCO [Example 204, (S)-3-Fluoro-9-(2-hydroxyethyl)-2-((R)-3-methylmorpholin-4-yl)-8-trifluoromethyl-6,7,8,9-tetrahydro-pyrimido[1,2-a]-pyrimidin-4-one] | < 10 nM

Now from value to compound:

IC50 | Structure (SMILES)
< 10 nM | C[C@@H]1COCCN1c1nc2n(c(=O)c1F)[C@@H](C(F)(F)F)CCN2c1ccnc(Cl)c1 [Example 122, (R)-9-(2-Chloro-pyridin-4-yl)-3-fluoro-2-((R)-3-methyl-morpholin-4-yl)-6-trifluoromethyl-6,7,8,9-tetrahydro-pyrimido[1,2-a]-pyrimidin-4-one]
< 10 nM | C[C@@H]1COCCN1c1nc2n(c(=O)c1F)CC[C@@H](C(F)(F)F)N2Cc1ccc(F)cn1 [Example 56, (S)-3-Fluoro-9-(5-fluoropyridin-2-yl-methyl)-2-((R)-3-methylmorpholin-4-yl)-8-trifluoromethyl-6,7,8,9-tetrahydro-pyrimido[1,2-a]-pyrimidin-4-one]
< 10 nM | CC(C)Oc1cc(N2CC[C@H](C(F)(F)F)n3c2nc(N2CCOC[C@H]2C)cc3=O)ccn1 [Example 114, (R)-9-(2-Isopropoxy-pyridin-4-yl)-2-((R)-3-methylmorpholin-4-yl)-6-trifluoromethyl-6,7,8,9-tetrahydro-pyrimido[1,2-a]-pyrimidin-4-one]
< 10 nM | C[C@@H]1COCCN1c1cc(=O)n2c(n1)N(CCOCC(F)(F)F)[C@H](C(F)(F)F)CC2 [Example 82, (S)-2-((R)-3-Methyl-morpholin-4-yl)-9-[2-(2,2,2-trifluoro-ethoxy)ethyl]-8-trifluoromethyl-6,7,8,9-tetrahydro-pyrimido[1,2-a]-pyrimidin-4-one]
10 to 100 nM | C[C@@H]1COCCN1c1cc(=O)n2c(n1)N(Cc1cnc(Cl)s1)[C@H](C(F)(F)F)CC2 [Example 34, (S)-9-(2-Chloro-thiazol-5-ylmethyl)-2-((R)-3-methyl-morpholin-4-yl)-8-trifluoromethyl-6,7,8,9-tetrahydro-pyrimido[1,2-a]-pyrimidin-4-one]
< 10 nM | CC(C)c1nc(CN2c3nc(N4CCOC[C@H]4C)cc(=O)n3CC[C@H]2C(F)(F)F)no1 [Example 201, (S)-9-(5-Isopropyl-[1,2,4]oxadiazol-3-yl-methyl)-2-((R)-3-methylmorpholin-4-yl)-8-trifluoromethyl-6,7,8,9-tetrahydro-pyrimido[1,2-a]-pyrimidin-4-one]
< 10 nM | Cc1nc(CN2CC[C@H](C(F)(F)F)n3c2nc(N2CCOC[C@H]2C)cc3=O)no1 [Example 27, (R)-2-((R)-3-Methyl-morpholin-4-yl)-9-(5-methyl-[1,2,4]oxadiazol-3-yl-methyl)-6-trifluoromethyl-6,7,8,9-tetrahydro-pyrimido[1,2-a]-pyrimidin-4-one]
< 10 nM | CC(C)=CCN1c2nc(N3CCOC[C@H]3C)cc(=O)n2CC[C@H]1C(F)(F)F [Example 266, (S)-9-(3-Methyl-but-2-enyl)-2-((R)-3-methyl-morpholin-4-yl)-8-trifluoromethyl-6,7,8,9-tetrahydro-pyrimido[1,2-a]-pyrimidin-4-one]
10 to 100 nM | C[C@@H]1COCCN1c1cc(=O)n2c(n1)N(Cc1cocn1)CC[C@@H]2C(F)(F)F [Example 110, (R)-2-((R)-3-Methyl-morpholin-4-yl)-9-oxazol-4-ylmethyl-6-trifluoromethyl-6,7,8,9-tetrahydro-pyrimido[1,2-a]-pyrimidin-4-one]
< 10 nM | C[C@@H]1COCCN1c1cc(=O)n2c(n1)N(CC(=O)C1CCCCC1)[C@H](C(F)(F)F)CC2 [Example 258, (S)-9-(2-Cyclohexyl-2-oxoethyl)-2-((R)-3-methylmorpholin-4-yl)-8-trifluoromethyl-6,7,8,9-tetrahydro-pyrimido[1,2-a]-pyrimidin-4-one]
< 10 nM | C[C@@H]1COCCN1c1cc(=O)n2c(n1)N(CCc1ccc(F)cc1)[C@H](C(F)(F)F)CC2 [Example 219, (S)-9-[2-(4-Fluoro-phenyl)ethyl]-2-((R)-3-methylmorpholin-4-yl)-8-trifluoromethyl-6,7,8,9-tetrahydro-pyrimido[1,2-a]-pyrimidin-4-one]
< 10 nM | C[C@@H]1COCCN1c1cc(=O)n2c(n1)N(Cc1cncc(F)c1)[C@H](C(F)(F)F)CC2 [Example 94, (S)-9-(5-Fluoropyridin-3-ylmethyl)-2-((R)-3-methylmorpholin-4-yl)-8-trifluoromethyl-6,7,8,9-tetrahydro-pyrimido[1,2-a]-pyrimidin-4-one]
